# According to article PMC12429880, “EGFR-Targeted Photodynamic Treatment of Triple Negative Breast Cancer Cell Lines Using Porphyrin–Peptide Conjugates: Synthesis and Mechanistic Insight” (Molecules, 2025):
# What was measured:
# MDA-MB453 [1] = assay: Intracellular ROS generation (DCFH-DA); format: cell-based; conditions: 24 h at IC50, 2 h irradiation with 10 μM DCFH-DA, 3 independent experiments
# Method: (§1) Intracellular ROS generation was assessed using the fluorogenic probe 2′,7′-dichlorodihydrofluorescein diacetate (DCFH-DA; Invitrogen, Molecular Probes). Once internalized, DCFH-DA is hydrolyzed by intracellular esterases to form non-fluorescent dichlorodihydrofluorescein (DCFH), which ROS subsequently oxidizes to the highly fluorescent dichlorofluorescein (DCF). MDA-MB453 and MDA-MB231 cells were seeded in black 96-well plates and treated with the respective PSs at their IC50 concentrations for 24 h. Cells were then irradiated in the presence of 10 μM DCFH-DA. To quantify ROS production, fluorescence intensity was measured using a fluorescence microscope (excitation: 488 nm; emission: 520 nm). Quantitative analysis of fluorescence intensity, expressed in arbitrary fluorescence units, was performed using ImageJ software, version 1.53e, and normalized to untreated control samples.
# MDA-MB231 [2] = assay: Intracellular ROS generation (DCFH-DA); format: cell-based; conditions: 24 h at IC50, 2 h irradiation with 10 μM DCFH-DA, 3 independent experiments
# Method: as §1
# [3] = Photostability (photobleaching) under irradiation; format: physicochemical
# Description: Compounds incorporating photosensitizing chromophores, such as tetrapyrrolic macrocycles, are susceptible to ROS-mediated photodegradation upon irradiation. Photostability of PSs is a critical parameter for achieving safe, effective, and precise PDT. It ensures sustained generation of ROS, minimizes the formation of potentially toxic or mutagenic degradation products, and preserves the structural and photophysical integrity of the PS during systemic circulation and tumor accumulation. High photostability is particularly important in delayed-activation protocols, enabling selective localization in target tissues. […] Thus, before assessing the photodynamic activity of the conjugates in TNBC cell lines, the photostability of 2 and conjugates 6, 7, and 8 was evaluated under the same conditions employed for the cell viability assays and the other biological studies reported in the present study. […]
# To assess whether the peptide moiety underwent photoinduced degradation, samples of porphyrin 2 and its conjugates 6–8 were recovered and analyzed by HPLC at the end of the irradiation period.
# For the chemical and biological analyses a 500 W tungsten white halogen lamp was used. […] The lamp has an irradiance of 22 mW/cm^2 (an average value determined between 380 and 780 nm with a Licor-1800 spectroradiometer, Li-COR, Bad Homburg, Germany), equating to 158 J/cm^2 of fluence over 2 h. […]
# MCF7 = assay: Intrinsic (dark) cytotoxicity, MTT assay without photoactivation; format: cell-based; conditions: no photoactivation, ten times the maximum PDT concentration (10 µM), mean ± SD of 5 independent experiments, in % (unit assumed)
# Method: (§2) The photodynamic effect of conjugates 6–8 on cell viability, compared to the reference compound 2, was evaluated using the MTT ([3-(4,5-dimethylthiazol-2-yl)-2,5-diphenyltetrazolium bromide]) assay. Briefly, 3.5 × 10^3 cells per well were seeded in 96-well plates and incubated for 48 h to allow for adherence and growth. Following this incubation period, cells were treated with increasing concentrations of the test compounds (ranging from 1 to 1000 nM), prepared in complete culture medium. All compound dilutions were prepared to ensure a final DMSO concentration of 0.1% (v/v), which is considered non-toxic. Control samples included cells cultured in complete medium alone, as well as a vehicle control treated with 0.1% DMSO in the absence of any compound (PS treatment was omitted). 24 h after treatment with PS, the medium was replaced with 1X PBS. Photoactivation was performed using a 500 W white tungsten halogen lamp, delivering an irradiance of 22 mW/cm^2, corresponding to a total fluence of 158 J/cm^2 over a 2 h irradiation period. To prevent thermal damage from the light source, a cooling system was employed by placing a circulating water filter between the lamp and the irradiation area to dissipate excess heat. Following irradiation, the PBS was replaced with fresh, PS-free culture medium, and cells were incubated at 37 °C. 24 h later, MTT was added to each well at a final concentration of 0.4 mg/mL, and cells were incubated for 3 h at 37 °C to allow the MTT metabolization in viable cells. The resulting formazan crystals were then dissolved in DMSO. Optical density was measured at 590 nm using an Infinite® 200 PRO plate reader (Tecan Life Sciences, Switzerland), and the resulting data were analyzed by non-linear regression using GraphPad PRISM 9.2.0 software (GraphPad Software Inc., San Diego, CA, USA), and IC50 values were extrapolated from these curves.
# (§3) The potential intrinsic cytotoxicity of the compounds was assessed under identical experimental conditions, except that the photoactivation step was omitted. […]
# MDA-MB453 [4] = assay: as above; format: cell-based; conditions: no photoactivation, ten times the maximum PDT concentration (10 µM), mean ± SD of 5 independent experiments, in % (unit assumed)
# Method: as §2, §3
# MDA-MB231 [5] = assay: as above; format: cell-based; conditions: no photoactivation, ten times the maximum PDT concentration (10 µM), mean ± SD of 5 independent experiments, in % (unit assumed)
# Method: as §2, §3
smiles,measurement,setting,value
"COC(=O)c1ccc(-c2c3nc(c([N+](=O)[O-])c4ccc([nH]4)c(-c4ccc(C(=O)OC)cc4)c4nc(cc5ccc2[nH]5)C=C4)C=C3)cc1 [compound 2, 10-Nitro-5,15-bis(4-carbomethoxyphenyl)porphyrin]",Intracellular ROS levels,MDA-MB453 [1],higher levels of intracellular ROS
same,Intracellular ROS levels,MDA-MB231 [2],higher levels of intracellular ROS
same,Soret band intensity retained after irradiation,"[3]; 10 μM in PBS, 2 h exposure to 500 W tungsten-halogen lamp, 22 mW/cm^2, 158 J/cm^2, UV-Vis",approximately 90%
same,HPLC analysis at the end of the irradiation period (structural integrity),"[3]; after 2 h irradiation with 500 W tungsten-halogen lamp, HPLC",No shifts in retention times were observed
same,Survival fraction (dark toxicity),MCF7,89.7 ± 1.16
same,Survival fraction (dark toxicity),MDA-MB453 [4],90.8 ± 0.66
same,Survival fraction (dark toxicity),MDA-MB231 [5],91.2 ± 1.26
